Where a name gives a salt, the structure may show the parent alone.
What was measured:
[1] = tested on: engorged adult female cattle ticks (Boophilus microplus); experiment: Boophilus microplus injection test (BOOPMI Inj); format: in vivo; details: application rate 20 μg/animal; injection into abdomen; assessed after 7 days
Description: Boophilus microplus Injection Test (BOOPMI Inj)
Solvent: dimethyl sulphoxide
To produce a suitable preparation of active compound, 10 mg of active compound are mixed with 0.5 ml of solvent, and the concentrate is diluted with solvent to the desired concentration.
1 μl of the active compound solution is injected into the abdomen of 5 engorged adult female cattle ticks (Boophilus microplus). The animals are transferred into dishes and kept in a climate-controlled room.
The activity is assessed after 7 days by laying of fertile eggs. Eggs whose fertility is not visible from the outside are stored in a climate-controlled cabinet until the larvae hatch after about 42 days. An efficacy of 100% means that none of the ticks has laid any fertile eggs; 0% means that all eggs are fertile.

[2] = tested on: L1 larvae of the Australian sheep blowfly (Lucilia cuprina); experiment: Lucilia cuprina test (LUCICU); format: in vivo; details: application rate 100 ppm; minced horsemeat; after 2 days
Description: Lucilia cuprina Test (LUCICU) Solvent: dimethyl sulphoxide To produce a suitable preparation of active compound, 10 mg of active compound are mixed with 0.5 ml of dimethyl sulphoxide, and the concentrate is diluted with water to the desired concentration. About 20 L1 larvae of the Australian sheep blowfly (Lucilia cuprina) are transferred into a test vessel containing minced horsemeat and the active compound preparation of the desired concentration. After 2 days, the kill in % is determined. 100% means that all of the larvae have been killed; 0% means that none of the larvae have been killed.

[3] = tested on: greenhouse red spider mite (Tetranychus urticae), OP-resistant; experiment: Tetranychus urticae spray test, OP-resistant (TETRUR); format: in vivo; details: bean leaf discs, after 6 days
Description: Tetranychus urticae—Spray Test, OP-Resistant (TETRUR)
(§1) Solvents: 78.0 parts by weight of acetone
(§2) • 1.5 parts by weight of dimethylformamide Emulsifier: alkylaryl polyglycol ether
(§3) To produce a suitable preparation of active compound, 1 part by weight of active compound is dissolved using the stated parts by weight of solvent and made up with water comprising an emulsifier concentration of 1000 ppm until the desired concentration is reached. To produce further test concentrations, the preparation is diluted with emulsifier-containing water.
Discs of bean leaves (Phaseolus vulgaris) which are infested by all stages of the greenhouse red spider mite (Tetranychus urticae) are sprayed with an active compound preparation of the desired concentration.
After 6 days, the efficacy in % is determined. 100% means that all of the spider mites have been killed; 0% means that none of the spider mites have been killed.

[4] = tested on: larvae of the mustard beetle (Phaedon cochleariae); experiment: Phaedon cochleariae spray test (PHAECO); format: in vivo; details: Chinese cabbage leaf discs, after 7 days
Description: Phaedon cochleariae—Spray Test (PHAECO)
as §1, §2, §3
After 7 days, the efficacy in % is determined. 100% means that all of the beetle larvae have been killed; 0% means that none of the beetle larvae have been killed.

[5] = tested on: adult cat fleas (Ctenocephalides felis); experiment: Ctenocephalides felis oral test (CTECFE); format: in vivo; details: application rate 100 ppm in citrated cattle blood; after 2 days
Description: Ctenocephalides felis-Oral Test ([…]) Solvent: dimethyl sulphoxide To produce a suitable preparation of active compound, 10 mg of active compound are mixed with 0.5 ml of dimethyl sulphoxide. Dilution with citrated cattle blood gives the desired concentration. About 20 unfed adult cat fleas (Ctenocephalides felis) are placed into a chamber which is closed at the top and bottom with gauze. A metal cylinder whose bottom end is closed with a parafilm is placed onto the chamber. The cylinder contains the blood/active ingredient preparation, which can be imbibed by the fleas through the parafilm membrane. After 2 days, the kill in % is determined. 100% means that all of the fleas have been killed; 0% means that none of the fleas have been killed.

[6] = log P determination by HPLC on reversed-phase column (C18), EEC Directive 79/831 Annex V.A8; format: physicochemical; details: method a): Agilent 1100 LC, Zorbax Eclipse Plus C18, acetonitrile/water with formic acid, gradient 10-95% in 4.25 min, 55° C.
Description: Agilent 1100 LC system; 50*4.6 Zorbax Eclipse Plus C18 1.8 micron; mobile phase A: acetonitrile (0.1% formic acid); mobile phase B: water (0.09% formic acid); linear gradient from 10% acetonitrile to 95% acetonitrile in 4.25 min, then 95% acetonitrile for a further 1.25 min; oven temperature 55° C.; flow rate: 2.0 ml/min. Mass detection is carried out via an Agilend MSD system.
^a)Unless indicated otherwise, the following method was used to determine the log P values and masses: The determination of the given log P values was carried out in accordance with EEC Directive 79/831 Annex V.A8 by HPLC (High Performance Liquid Chromatography) on a reversed-phase column (C18). Agilent 1100 LC system; 50*4.6 Zorbax Eclipse Plus C18 1.8 micron; mobile phase A: acetonitrile (0.1% formic acid); mobile phase B: water (0.09% formic acid); linear gradient from 10% acetonitrile to 95% acetonitrile in 4.25 min, then 95% acetonitrile for a further 1.25 min; oven temperature 55° C.; flow rate: 2.0 ml/min. Mass detection is carried out via an Agilend MSD system. ^b)Note for the alternative method for determining log P values and masses: The stated log P values were determined in accordance with EEC Directive 79/831 Annex V.A8 by HPLC (High Performance Liquid Chromatography) using a reversed-phase column (C18). Waters ACQUITY UPLC-MS system; 2.1*50 mm Zorbax Eclipse Plus C18 1.8 μm 600 bar; injection volume: 0.5 ul about 1000 ppm; mobile phase A: acetonitrile (0.1% formic acid); mobile phase B: water (0.085% formic acid); linear gradient from 10% acetonitrile to 95% acetonitrile in 1.5 min, then 95% acetonitrile for a further 0.5 min; oven temperature 60° C.; flow rate: 1.0 ml/min. Mass detection is carried out via a Waters SQD system.

[7] = tested on: caterpillars of the armyworm (Spodoptera frugiperda); experiment: Spodoptera frugiperda spray test (SPODFR); format: in vivo; details: maize leaf discs, after 7 days
Description: Spodoptera frugiperda—Spray Test (SPODFR)
as §1, §2, §3
Leaf discs of maize (Zea mays) are sprayed with an active compound preparation of the desired concentration and, after drying, populated with caterpillars of the armyworm (Spodoptera frugiperda).
After 7 days, the efficacy in % is determined. 100% means that all of the caterpillars have been killed; 0% means that none of the caterpillars have been killed.

[8] = tested on: adult houseflies (Musca domestica); experiment: Musca domestica test (MUSCDO); format: in vivo; details: application rate 100 ppm; after 2 days
Description: Musca domestica Test (MUSCDO) Solvents: dimethyl sulphoxide To produce a suitable preparation of active compound, 10 mg of active compound are mixed with 0.5 ml of dimethyl sulphoxide, and the concentrate is diluted with water to the desired concentration. Vessels containing a sponge treated with sugar solution and the active compound preparation of the desired concentration are populated with 10 adult houseflies (Musca domestica). After 2 days, the kill in % is determined. 100% means that all of the flies have been killed; 0% means that none of the flies have been killed.

Row | SMILES | efficacy (no laying of fertile eggs) [1] [%] | kill in % [2] [%] | efficacy in % ([3]; application rate 100 g/ha) [%] | efficacy in % ([4]; application rate 100 g/ha) [%] | kill in % [5] [%] | further results
1 | Cn1nc(C(F)(F)C(F)(F)F)c(C(F)(F)F)c1-n1cc(-c2ccc(F)c(CNC(=O)C3CCOC3)c2)cn1 (racemic) [Ic-9] | 100 | 100 | 90 | 100 | 100 | 
2 | CC(NC(=O)C1CC1)c1cccc(-c2cnn(-c3c(C(F)(F)F)c(C(F)(F)C(F)(F)F)nn3C)c2)c1 (racemic) [Ic-21] |  |  | 90 | 100 |  | 
3 | Cn1nc(C(F)(F)C(F)(F)F)c(C(F)(F)F)c1-n1cnc(-c2cccc(CN)c2)c1 [1-(3-{1-[1-methyl-3-(pentafluoroethyl)-4-(trifluoromethyl)-1H-pyrazol-5-yl]-1H-imidazol-4-yl}phenyl)methanamine hydrochloride] |  |  |  |  |  | chromatographic logP [6]: 1.83
4 | Cn1nc(C(F)(F)C(F)(F)F)c(C(F)(F)F)c1-n1cc(-c2cccc(CN)c2)cn1 [1-{3-[2′-methyl-5′-(pentafluoroethyl)-4′-(trifluoromethyl)-2′H-1,3′-bipyrazol-4-yl]phenyl}methanamine hydrochloride (1:1)] |  |  |  |  |  | chromatographic logP [6]: 1.93
5 | Cn1nc(C(F)(F)C(F)(F)F)c(C(F)(F)F)c1-n1cnc(-c2ccc(F)c(CNC(=O)C3CC3)c2)c1 [Ib-7] |  |  |  | 100 |  | 
6 | Cn1nc(C(F)(F)C(F)(F)F)c(C(F)(F)F)c1-n1cc(-c2ccc(F)c(CNC(=O)CC(F)(F)F)c2)cn1 [Ic-5] | 100 | 100 | 100 | 100 | 100 | efficacy in % ([7]; application rate 100 g/ha): 100%; kill in % [8]: 100%
7 | Cn1nc(C(F)(F)C(F)(F)F)c(C(F)(F)F)c1-n1cc(-c2ccc(F)c(CNC(=O)C(F)(F)F)c2)cn1 [Ic-6] | 100 | 100 | 100 | 100 | 100 | kill in % [8]: 80%
8 | Cn1nc(C(F)(F)C(F)(F)F)c(C(F)(F)F)c1-n1cc(-c2ccc(F)c(CNC(=O)c3ccccc3)c2)cn1 [Ic-14] | 100 |  | 90 | 100 |  | 
9 | Cn1nc(C(F)(F)C(F)(F)F)c(C(F)(F)F)c1-n1cc(-c2ccc(F)c(CNC(=O)c3cccnc3)c2)cn1 [Ic-15] | 90 |  | 100 |  |  | 
10 | Cn1nc(C(F)(F)C(F)(F)F)c(C(F)(F)F)c1-n1cc(-c2ccc(F)c(CNC=O)c2)cn1 [Ic-19] | 100 | 100 |  |  | 100 | efficacy in % ([7]; application rate 500 g/ha): 83%; efficacy in % ([3]; application rate 500 g/ha): 90%; efficacy in % ([4]; application rate 500 g/ha): 100%
11 | Cn1nc(C(F)(F)C(F)(F)F)c(C(F)(F)F)c1-n1cc(-c2ccc(F)c(CNC(=O)c3cncnc3)c2)cn1 [Ic-27] | 100 |  | 100 | 83 | 90 | 
12 | CC(C)C(=O)NCc1cc(-c2cnn(-c3c(C(F)(F)F)c(C(F)(F)C(F)(F)F)nn3C)c2)ccc1F [Ic-28] | 100 | 100 |  | 100 | 90 | efficacy in % ([7]; application rate 100 g/ha): 100%
13 | Cn1nc(C(F)(F)C(F)(F)F)c(C(F)(F)F)c1-n1cc(-c2cncc(CNC(=O)C3CC3)c2)cn1 [Ic-29] |  |  | 90 | 100 |  | 
14 | CSC(C)C(=O)NCc1cc(-c2cnn(-c3c(C(F)(F)F)c(C(F)(F)C(F)(F)F)nn3C)c2)ccc1F (stereo not drawn) [Ic-30] | 100 | 100 | 100 |  | 95 | 
15 | CC(=O)NC(C)c1cccc(-c2cnn(-c3c(C(F)(F)F)c(C(F)(F)C(F)(F)F)nn3C)c2)c1 (stereo not drawn) [Ic-31] |  |  |  | 100 |  | 
16 | CCC(=O)NCc1cc(-c2ccn(-c3c(C(F)(F)F)c(C(F)(F)C(F)(F)F)nn3C)n2)ccc1F [Id-2] | 90 | 90 |  | 100 | 80 | efficacy in % ([7]; application rate 100 g/ha): 100%
17 | CC(=O)NCc1cc(-c2ccn(-c3c(C(F)(F)F)c(C(F)(F)C(F)(F)F)nn3C)n2)ccc1F [Id-4] |  |  |  | 100 |  | 
18 | CCC(=O)NCc1cccc(-c2ccn(-c3c(C(F)(F)F)c(C(F)(F)C(F)(F)F)nn3C)n2)c1 [Id-5] |  |  |  | 100 |  | 
19 | Cn1nc(C(F)(F)C(F)(F)F)c(C(F)(F)F)c1-n1ccc(-c2ccc(F)c(CNC(=O)C3CC3)c2)n1 [Id-9] | 90 |  |  | 100 |  | efficacy in % ([7]; application rate 100 g/ha): 83%
20 | CCC(=O)NCc1cc(-c2cnn(-c3c(C(F)(F)F)c(C(F)(F)C(F)(F)F)nn3C)n2)ccc1F [If-1] | 100 | 100 |  | 100 | 100 | efficacy in % ([7]; application rate 100 g/ha): 100%; kill in % [8]: 80%
21 | Cn1nc(C(F)(F)C(F)(F)F)c(C(F)(F)F)c1-n1cc(-c2cccc(CNC(=O)C3CC3)c2)nn1 [Ig-2] | 100 | 100 |  | 100 | 100 | kill in % [8]: 100%
22 | CCC(=O)NCc1cccc(-c2cn(-c3c(C(F)(F)F)c(C(F)(F)C(F)(F)F)nn3C)nn2)c1 [Ig-4] | 100 | 100 | 90 | 100 | 100 | kill in % [8]: 100%
23 | CC(=O)NCc1cccc(-c2cn(-c3c(C(F)(F)F)c(C(F)(F)C(F)(F)F)nn3C)nn2)c1 [Ig-6] | 100 | 100 |  | 100 | 100 | 

Reference: patent publication US9675070B2 (BAYER CROPSCIENCE AG, priority 2013, dated 2017)
